Laboratory results as given in the METLIN SMRT retention time set (Domingo-Almenara et al. 2019).

Test: gradient 5% acetonitrile 3 min, to 50% in 2 min, to 85% in 15 min, held 3 min, 100 µL/min
Conditions: column: Zorbax Extend-C18 2.1 x 50 mm; eluents: water / acetonitrile, 0.1% formic acid
How it was run: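 Values are retention times taken from adduct peaks that software picked and an analyst inspected. The pure standards were run as mixtures of ~100 molecules on HPLC linked to a quadrupole time-of-flight mass spectrometer, in positive and negative ionization mode. A Zorbax Extend-C18 column (2.1 × 50 mm, 1.8 μm) was used at 100 μL/min with water and acetonitrile, each including 0.1% formic acid.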

RP-LC retention time [s] | SMILES
565 | O=C(NCC#CCN1CCc2ccccc2C1)c1c(F)cccc1Cl
796 | Cc1ccc(NC(=O)N2CC(c3nc(C)no3)C3(CCOCC3)C2)c(Cl)c1 (centres undefined)
830 | Cc1cccc(NC(=O)C2CCN(S(=O)(=O)c3ccc4c(c3)sc(=O)n4C)CC2)c1C
920 | Cc1cc(N2CCC(NC(=O)Nc3ccc(Cl)cc3)C2=O)ccc1F (centres undefined)
704 | Cc1nc(-c2cnccn2)n(CC(=O)Nc2ccccc2)c(=O)c1C
723 | O=C1c2ccccc2NC(c2cc(Cl)cc(Cl)c2O)N1CCc1ccccn1 (centres undefined)
559 | Cc1ccnc(N2CCC(C(=O)NCCCN3CCCCC3)CC2)n1
676 | OCCNCc1ccc(-c2cc(Cl)cc(Cl)c2)o1
612 | CCN1CCN(C(=O)C2CCCN(S(=O)(=O)c3cc(-c4noc(C)n4)cs3)C2)CC1 (centres undefined)
695 | CC1(C)CC(=O)c2cn(-c3ccc(F)cc3)c(=O)c(C(=O)N3CCOCC3)c2C1
844 | O=C(C1CCCN(c2nc3cccnc3s2)C1)N1CCN(c2ccccc2)CC1 (centres undefined)
844 | Cc1cccc(NC(=O)C2CCN(S(C)(=O)=O)c3ccccc3O2)c1C (centres undefined)
589 | CCn1nc(C)c(-c2cc(C(=O)O)[nH]n2)c1C
565 | Cc1cccc(NC(=O)N2CCc3nc[nH]c3C2)c1C
921 | Clc1cccc(Nc2c(-c3ccccc3)nc3cnccn23)c1
784 | Nc1nc(N2CCN(c3ccccc3)CC2)ncc1C(=O)Nc1ccccc1
758 | O=C(NCCc1c[nH]c2ccccc12)C1CC(=O)N(CCc2ccccc2)C1 (centres undefined)
893 | COc1cc(OC)cc(C(=O)N2CCC3(CC2)N=C(c2ccc(Cl)cc2)NO3)c1
1040 | COc1ccc(CNC(=O)C2CCCN(S(=O)(=O)c3cc(-c4noc(C)n4)cs3)C2)cc1 (centres undefined)
603 | CC(C)C(=O)N1CCC(N2C[C@H](O)C[C@H]2C(=O)NC2CCCCC2)CC1
1200 | CCc1ccc(-c2nc(C3CC(=O)N(c4ccc(F)c(Cl)c4)C3)no2)cc1 (centres undefined)
931 | COc1ccc(OC)c(NC(=O)C2CCN(S(=O)(=O)c3cc(-c4noc(C)n4)cs3)CC2)c1

RP-LC retention time [s] | SMILES
683 | CCC(CO)NCc1ccc(-c2ccc(Br)cc2)o1 (centres undefined)
686 | CN(C)c1nc2ncn3c(=O)n(CC(=O)NCc4ccccc4Cl)nc3c2s1
586 | COc1ccc(-c2nc3cnccn3c2Nc2ccc(C(=O)NCCN(C)C)cc2)cc1
758 | Cc1cccc(S(=O)(=O)Nc2ccc3c(c2)CCC(=O)N3C)c1
1170 | Cc1ccccc1-c1noc(CSc2nc3cc4c(cc3c(=O)n2CC2CCCO2)OCO4)n1 (centres undefined)
634 | CC(=O)Nc1ccc(NC(=O)C2CC(=O)N(c3n[nH]c4cccc(F)c34)C2)cc1 (centres undefined)
753 | Cc1ccc(-c2ccc(N3CCCC(C(=O)Nc4ccc5c(c4)OCO5)C3)nn2)cc1 (centres undefined)
1180 | CC1CCCCN1S(=O)(=O)c1ccc2nc(N3CCN(c4ccccc4F)CC3)ccc2c1 (centres undefined)
833 | COc1ccc(C2CC(=O)N(c3ccc4c(c3)OCCO4)C(=O)C2)cc1
736 | CCOc1ccc(N2CC(c3nc(-c4ccncc4)no3)CC2=O)cc1 (centres undefined)
853 | Cc1ccccc1CNC(=O)CC1CCN(C(=O)c2[nH]c(C)c(C(=O)OC(C)C)c2C)CC1
602 | O=C(CN1CCN(c2ncccn2)CC1)N1c2ccccc2Sc2ccccc21
858 | CC1=C(c2ccc(C)c(C)c2)S(=O)(=O)N=C1N1CCCN(C(=O)c2ccsc2)CC1
852 | Cc1ccc(NC(=O)Nc2nc(C(=O)Nc3ccc4c(c3)OCO4)cs2)cc1
940 | CCN(CC)C(=O)c1cnc2snc(C)c2c1N1CCC(C(=O)Nc2cc(F)ccc2F)CC1
700 | CCCC(=O)Nc1nc(C(=O)OCC)cs1
606 | NC(=O)C1CCN(C(=O)C2COC3(CCCCC3)N2C(=O)c2ccccc2)CC1 (centres undefined)
626 | CN1CCCC1c1nc(C2CN(S(=O)(=O)Cc3ccccc3F)C2)no1 (centres undefined)
1060 | COc1ccc(NC(=O)C2CCCN(c3nc4ccccc4nc3C(F)(F)F)C2)cc1OC (centres undefined)
619 | O=C(NCCCN1CCCC1=O)c1ccc(-c2ccc(N3CCSCC3)nc2)cc1
840 | CC(CNC(=O)CCS(=O)(=O)c1ccc2c(c1)CCN2C(=O)C1CC1)c1ccccc1 (centres undefined)
595 | CC(NCC(O)COCCOc1ccc(F)cc1)c1ccccc1 (centres undefined)

RP-LC retention time [s] | SMILES
972 | Cc1ccc(CNC(=O)N2c3ccccc3CC2c2nc(C3CC3)no2)cc1 (centres undefined)
694 | CC(C)Cn1c(=O)c2cc(C(=O)NCCC3CCN(C(C)C)CC3)nn2c2ccccc21
622 | CCN1CCN(c2nnc(-c3nc(C4CC4)no3)c3ccccc23)CC1
800 | Cn1c(N2CCCC(C(=O)N3CCN(c4ccc(Cl)cc4)CC3)C2)cc(=O)n(C)c1=O (centres undefined)
1090 | Cc1ccc(-n2nc(CO)c(C(=O)NC3CCCC3)n2)cc1C
868 | Cc1c(S(=O)(=O)N2CCC(C(=O)NCc3csc(-c4ccccc4)n3)CC2)cnn1C(F)F
973 | CCOC(=O)c1cc(C(=O)OCC)n(CC(=O)c2ccccc2)n1
788 | Cc1noc(C)c1C(=O)N1CC(c2nc(CCOC3CCCC3)no2)C1
822 | CNC(=O)Nc1ccc(C2(C(=O)Nc3cc(C)cc(C)c3)CCC2)cc1
638 | Cc1ccc(-c2nc3nc(C)cc(N(C)CCO)n3n2)cc1
882 | COc1ccccc1CNC(=O)C1=C2CCCN2c2ccc(F)cc2S1(=O)=O
773 | CCCCNC(=O)Cn1c(=O)c2cccn2c2ccc(F)cc21
983 | O=S(=O)(Nc1cnn(-c2ncc(N3CCCC3)cn2)c1)c1ccc2c(c1)CCCC2
923 | CCc1ccc(S(=O)(=O)N2c3ccccc3NC3=C(C(=O)CCC3)C2c2ccco2)cc1 (centres undefined)
772 | COc1cccc2sc(N(C)CC(=O)NCCc3cccs3)nc12
689 | CCC(C)(C)N=C(NC#N)Nc1cccnc1
991 | Cc1ccc(C)c(N2C(=O)CN(S(=O)(=O)c3ccccc3)CC2(C)C(=O)NC2CCCC2)c1 (centres undefined)
863 | O=C(NCc1ccc(F)cc1Cl)C1CCN(c2cc(Oc3ccccc3)ncn2)CC1
687 | O=C1CCCN1CCCN1C(=O)[C@H]2CN(Cc3ccccc3OC(F)(F)F)C[C@H]2C1=O
938 | COc1ccc(CCNC(=O)C2CCCN(S(=O)(=O)c3ccc(OC)c(Cl)c3)C2)cc1 (centres undefined)
681 | CCN(CC)C(=O)c1ccc2nc(-c3ccc(Cl)cc3)cn2c1
886 | COc1ccc(N2C=C(C(=O)N3CCOCC3)S(=O)(=O)c3ccc(Cl)cc32)cc1Cl

RP-LC retention time [s] | SMILES
668 | COCc1c(C(=O)O)nnn1-c1cccc(OC)c1
843 | CC(=O)N1CCCc2cc(S(=O)(=O)N3CCC(C(=O)N4CCc5ccccc5C4)CC3)ccc21
663 | CC1(C)Cc2cccc(OCc3ccc(C(=O)NCc4ccccn4)cc3)c2O1
521 | O=C(c1ccco1)N1CCC(c2nc(C3CC3)n[nH]2)CC1
563 | CN(CCC#N)C(=O)Cn1nc(Cc2cccnc2)c2ccccc2c1=O
911 | O=C(NCCC1=CCCCC1)C(=O)NCC1OCCCN1S(=O)(=O)c1ccccc1 (centres undefined)
847 | O=C(NCc1ccccc1Cl)C1CCN(c2nnc(-c3ccccc3)o2)CC1
697 | COc1ccccc1NC(=O)N1CCCC1c1nncn1C1CCCC1 (centres undefined)
726 | COc1ccc(Cl)cc1NC(=O)c1cn2c(n1)CCCC2
670 | CCN(Cc1ccccc1)c1ccc(-c2noc(CN3CCN(C)CC3)n2)cn1
748 | O=C(N[C@H]1C[C@@H]2C[C@H]1N(C(=O)c1cccc(Cl)c1)C2)c1ccccc1
739 | O=C(NC1CCN(c2cc(-c3ccccc3)[nH]n2)C1)c1ccc(F)c(F)c1 (centres undefined)
770 | COc1cccc2cc(C(=O)NCCC(O)C(C)(C)C)oc12 (centres undefined)
574 | O=C(NCc1cccs1)C1CCCN(C(=O)c2cc(-c3ccncc3)n[nH]2)C1 (centres undefined)
824 | COc1ccc(OCc2noc(CNS(=O)(=O)Cc3ccccc3)n2)cc1
592 | CC(C)Cn1c(=O)c(N2CCN(C(=O)Cc3cccs3)CC2)nc2ccncc21
1080 | CCOc1ccc(-c2nc(-c3cccc(-c4ccn[nH]4)c3)no2)cc1OCC
584 | CC(C)CNC(=O)C1(CCO)CCN(c2ncccn2)C1 (centres undefined)
616 | O=C(NCCn1nnc2cc(C(=O)N3CCCC3)ccc21)Nc1ccccc1
1310 | Cc1oc(-c2ccc(Cl)cc2)nc1Cn1nnc(C(=O)Nc2cc(F)ccc2F)c1C
933 | COc1ccccc1-c1noc(C2CCCN2C(=O)Nc2ccccc2C(F)(F)F)n1 (centres undefined)
767 | CC(C)OCCCNC(=O)c1ccc2c(c1)CCCN2S(C)(=O)=O

SMILES | RP-LC retention time [s]
CN1[C@@H]2CC[C@H]1CC(OC(=O)C1C=Nc3ccccc31)C2 (some centres undefined) | 656
